Assay results published in patent US10633345B2, “Human plasma kallikrein inhibitors” (BioCryst Pharmaceuticals, Inc., priority 2014, dated 2020).

Tests used:
[1] = system: patients with hereditary angioedema (HAE); conditions: cited from earlier work
human plasma kallikrein = human plasma kallikrein (Homo sapiens (Human), UniProt P03952); test: Plasma kallikrein activity assay (chromogenic substrate S2302); assay type: biochemical; conditions: 2 nM kallikrein, 80 μM S2302, 30° C., pH 7.8; Cheng-Prusoff; values given as bins
Description: Plasma Kallikrein Activity Assay.
The effect of compounds of the invention on human plasma kallikrein activity was determined using the chromogenic substrates (DiaPharma Group, Inc., West Chester, Ohio, USA). In these experiments, 2 nM kallikrein (Enzyme Research Laboratories, South Bend, Ind., USA) was incubated with 80 μM S2302 (H-D-Pro-Phe-Arg-p-nitroaniline) in the absence or presence of increasing concentrations of compounds of the invention in a final volume of 200 μL Tris-HCl buffer (200 mM NaCl; 2.5 mM CaCl2; 50 mM Tris-HCl, pH 7.8).
Data were analyzed using SigmaPlot software (Systat Software, Inc., San Jose, Calif., USA) (Four Parameter Logistic Curve).

[2] = system: mouse model of middle cerebral artery occlusion (MCAO); conditions: cited from earlier work

human plasma kallikrein, sequence (P03952 whole entry, looked up): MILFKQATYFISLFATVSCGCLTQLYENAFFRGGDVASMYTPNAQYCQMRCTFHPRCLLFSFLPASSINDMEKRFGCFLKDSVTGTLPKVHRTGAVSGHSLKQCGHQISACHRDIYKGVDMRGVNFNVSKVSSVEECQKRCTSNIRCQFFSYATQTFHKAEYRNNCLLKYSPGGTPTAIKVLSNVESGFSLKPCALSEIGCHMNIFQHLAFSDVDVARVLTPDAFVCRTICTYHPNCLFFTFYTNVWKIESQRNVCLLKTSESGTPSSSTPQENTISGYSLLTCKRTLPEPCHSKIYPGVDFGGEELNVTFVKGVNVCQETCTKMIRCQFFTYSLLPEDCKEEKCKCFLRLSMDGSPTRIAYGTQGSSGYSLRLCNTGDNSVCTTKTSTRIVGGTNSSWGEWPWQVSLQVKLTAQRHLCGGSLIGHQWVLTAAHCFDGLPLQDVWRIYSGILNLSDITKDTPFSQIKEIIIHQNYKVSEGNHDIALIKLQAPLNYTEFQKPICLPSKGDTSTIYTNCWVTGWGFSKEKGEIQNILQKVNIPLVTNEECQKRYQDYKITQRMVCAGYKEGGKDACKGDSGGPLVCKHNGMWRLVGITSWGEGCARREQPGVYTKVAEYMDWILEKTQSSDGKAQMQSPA
human plasma kallikrein, sequence (P03952 whole entry partner, looked up): as the sequence (P03952 whole entry, looked up) above

In the case of ecallantide [DX-88], the “edema in patients with hereditary angioedema (HAE)” value [1] is given as “alleviates edema”.

For `N#Cc1cccc(C(N)(CCC2CC2)c2ccc(F)c(NC(=O)c3cc(C(F)(F)F)nn3-c3cccc(C(N)=O)c3)c2)c1` (single isomer, unassigned; (-)) [Compound 267c, (−)-N-(5-(1-amino-1-(3-cyanophenyl)-3-cyclopropylpropyl)-2-fluorophenyl)-1-(3-carbamoylphenyl)-3-(trifluoromethyl)-1H-pyrazole-5-carboxamide], the Ki (human plasma kallikrein) was > 100 nM.

B1: C1-inhibitor: "a physiological inhibitor (C1-inhibitor)" (protein, UniProt P05155 23-500, looked up)
Plasma protease C1 inhibitor: NPNATSSSSQDPESLQDRGEGKVATTVISKMLFVEPILEVSSLPTTNSTTNSATKITANTTDEPTTQPTTEPTTQPTIQPTQPTTQLPTDSPTQPTTGSFCPGPVTLCSDLESHSTEAVLGDALVDFSLKLYHAFSAMKKVETNMAFSPFSIASLLTQVLLGAGENTKTNLESILSYPKDFTCVHQALKGFTTKGVTSVSQIFHSPDLAIRDTFVNASRTLYSSSPRVLSNNSDANLELINTWVAKNTNNKISRLLDSLPSDTRLVLLNAIYLSAKWKTTFDPKKTRMEPFHFKNSVIKVPMMNSKKYPVAHFIDQTLKAKVGQLQLSHNLSLVILVPQNLKHRLEDMEQALSPSVFKAIMEKLEMSKFQPTLLTLPRIKVTTSQDMLSIMEKLEFFDFSYDLNLCGLTEDPDLQVSAMQHQTVLELTETGVEAAAASAISVARTLLVFEVQQPFLFVLWDQQHKFPVFMGRVYDPRA
In the case of B1, the infarct size [2] is given as “reduced”.
